How the values were obtained:
[1] = Approximate solubility test on crystal forms of hydrochloride salt of nepicastat at room temperature; assay type: physicochemical; conditions: thermodynamic from solid, room temperature
[2] = Dynamic vapor sorption (DVS) hygroscopicity; assay type: physicochemical
Procedure: DVS curves are acquired on DVS Intrinsic from SMS (Surface Measurement Systems). • Testing temperature: 25° C. • Sample amount: 10-20 mg • dm/dt: 0.002%/min; • RH range: 0% RH-95% RH-0% RH • RH gradient: 10%

[3] = Long-term stability test (25° C./60% RH) of crystal form I; assay type: physicochemical; conditions: for Moisture (KF, w/w %) / Related substances (w/w %): Total impurities / Chiral purity (%) / Content (HPLC, w/w %): 25° C. ± 2° C./60% RH ± 5% RH; for Chiral purity (%): S-enantiomer; for Content (HPLC, w/w %): deducting residual solvent(s) and moisture
[4] = Accelerated stability test (40° C./75% RH) of crystal form I; assay type: physicochemical; conditions: for Moisture (KF, w/w %) / Related substances (w/w %): Total impurities / Chiral purity (%) / Content (HPLC, w/w %): 40° C. ± 2° C./75% RH ± 5% RH; for Chiral purity (%): S-enantiomer; for Content (HPLC, w/w %): deducting residual solvent(s) and moisture
[5] = Stability studies under relatively harsh conditions (40° C., 40° C./75% RH, 60° C., 60° C./75% RH) on crystal forms I and II; assay type: physicochemical; conditions: for crystal form stability (XRPD pattern): 15 days
[6] = Bioavailability test, intravenous and oral administration to mice; conditions: mouse, in vivo, IV 15 mg/kg, PO 30 mg/kg
From the text: The crystal forms I and II of hydrochloride salt of nepicastat and the crystal forms of other acid addition salts of nepicastat in Table 31 were taken, and administered intravenously and orally to mice respectively, wherein: • the formulation for intravenous (IV) administration was: 5% (v/v) DMSO+10% (v/v) Solutol HS 15+85% (v/v) physiological saline; • the formulation for oral (PO) administration was: 0.5% (v/v) MC4000 aqueous solution (MC: methylcellulose).
The specific administration was as follows: • Experiment: three mice were subjected to the test in parallel for each formulation; • Body weight: about 30 g • Administration route: IV; PO • Dose administered: IV-15 mg/kg; PO-30 mg/kg; • Before administration: fasting for 12 hours before administration, and allowing mice to drink water; • After administration: allowing mice to drink water, and feeding within 2 hours after administration; • Blood collecting site: the vein at a hind leg • Blood collecting times: IV—0.083, 0.25, 0.5, 1, 2, 4, 6, 8, 24 h; • PO—0.25, 0.5, 1, 2, 4, 6, 8, 24 h.
Due to very close solubilities of the crystal forms I and II of hydrochloride salt of nepicastat in water, it was found in the experiment that both of them obtained clear solutions upon preparing the administration samples.

With `Cl.NCc1c[nH]c(=S)n1[C@H]1CCc2c(F)cc(F)cc2C1.O` [crystal form I of hydrochloride salt, (S)-5-aminomethyl-1-(5,7-difluoro-1,2,3,4-tetrahydronaphthalen-2-yl)-1,3-dihydroimidazole-2-thione hydrochloride monohydrate] the solubility ([1]; aqueous with cosolvent or surfactant or cyclodextrin, solvent 15% Isopropanol) was 20000 to 27000 µg/mL, the solubility ([1]; aqueous with cosolvent or surfactant or cyclodextrin, solvent 30% Methanol) was 21000 to 42000 µg/mL and the solubility ([1]; aqueous with cosolvent or surfactant or cyclodextrin, solvent 50% Acetonitrile) was 80000 to 100000 µg/mL. The solubility ([1]; aqueous with cosolvent or surfactant or cyclodextrin, solvent 50% Ethanol) was 20000 to 27000 µg/mL, the solubility ([1]; aqueous with cosolvent or surfactant or cyclodextrin, solvent 50% Isopropanol) was 40000 to 80000 µg/mL and the solubility ([1]; aqueous with cosolvent or surfactant or cyclodextrin, solvent 50% Tetrahydrofuran) was 100000 to 130000 µg/mL. The solubility ([1]; organic solvent or mixture, solvent 1,4-Dioxane) was under 1000 µg/mL, the solubility ([1]; organic solvent or mixture, solvent 2-Butanone) was under 1000 µg/mL and the solubility ([1]; organic solvent or mixture, solvent 2-Methyltetrahydrofuran) was under 1000 µg/mL. It also gave a solubility ([1]; organic solvent or mixture, solvent Acetone) of under 1000 µg/mL, a solubility ([1]; organic solvent or mixture, solvent Acetonitrile) of 40 µg/mL and a solubility ([1]; organic solvent or mixture, solvent Chloroform) of 380 µg/mL. The solubility ([1]; organic solvent or mixture, solvent Dichloromethane) was under 10 µg/mL, the solubility ([1]; organic solvent or mixture, solvent Ethanol) was 6500 µg/mL and the solubility ([1]; organic solvent or mixture, solvent Ethyl acetate) was 10 µg/mL. The solubility ([1]; organic solvent or mixture, solvent Isopropanol) was 6000 µg/mL, the solubility ([1]; organic solvent or mixture, solvent Methanol) was 33000 µg/mL and the solubility ([1]; organic solvent or mixture, solvent Methyl tert-butyl ether) was under 1000 µg/mL. For the same compound, the solubility ([1]; organic solvent or mixture, solvent N-hexane) was under 10 µg/mL, the solubility ([1]; organic solvent or mixture, solvent Propanol) was 11700 µg/mL and the solubility ([1]; organic solvent or mixture, solvent Propylene carbonate) was 140 µg/mL. The solubility ([1]; organic solvent or mixture, solvent Tetrahydrofuran) was 90 µg/mL, the solubility ([1]; solvent Purified water) was 7400 µg/mL and the “hygroscopicity of the sample” value ([2]; DVS, 0% RH to 80% RH) was “slight hygroscopicity”. The “weight gain by hygroscopicity” value ([2]; DVS, from 0% RH to 80% RH, 25° C.) was “about 1.036%”, the “crystal form before and after the DVS test” value ([2]; XRPD before and after DVS) was “remained unchanged” and the “Moisture (KF, w/w %)” value ([3]; 3 months) was 5.7 w/w %. For the same compound, the “Related substances (w/w %): Total impurities” value (shortened to “Related substances (w/w %)”) ([3]; 3 months) was “not detected”, the “Chiral purity (%)” value ([3]; 3 months) was 99.8% and the “Content (HPLC, w/w %)” value ([3]; 3 months) was 100.8 w/w %. The “Moisture (KF, w/w %)” value ([3]; 6 months) was 6.0 w/w %, the “Related substances (w/w %)” value ([3]; 6 months) was “not detected” and the “Chiral purity (%)” value ([3]; 6 months) was 99.8%. For the same compound, the “Content (HPLC, w/w %)” value ([3]; 6 months) was 100.3 w/w %, the “Moisture (KF, w/w %)” value ([3]; 9 months) was 6.3 w/w % and the “Related substances (w/w %)” value ([3]; 9 months) was “not detected”. For the same compound, the “Chiral purity (%)” value ([3]; 9 months) was 99.8%, the “Content (HPLC, w/w %)” value ([3]; 9 months) was 100.5 w/w % and the “Moisture (KF, w/w %)” value ([3]; 12 months) was 6.2 w/w %. The “Related substances (w/w %)” value ([3]; 12 months) was “not detected”, the “Chiral purity (%)” value ([3]; 12 months) was 99.8% and the “Content (HPLC, w/w %)” value ([3]; 12 months) was 100.0 w/w %. The “Moisture (KF, w/w %)” value ([3]; Initial) was 5.9 w/w %, the “Related substances (w/w %)” value ([3]; Initial) was “not detected” and the “Chiral purity (%)” value ([3]; Initial) was 99.8%. For the same compound, the “Content (HPLC, w/w %)” value ([3]; Initial) was 100.3 w/w %, the long-term stability ([3]; 25° C./60% RH, double-layer polyethylene bag) was “no significant change in the detection results” and the “Moisture (KF, w/w %)” value ([4]; 1 months) was 5.8 w/w %. For the same compound, the “Related substances (w/w %)” value ([4]; 1 months) was “not detected”, the “Chiral purity (%)” value ([4]; 1 months) was 99.8% and the “Content (HPLC, w/w %)” value ([4]; 1 months) was 100.4 w/w %. The “Moisture (KF, w/w %)” value ([4]; 2 months) was 5.7 w/w %, the “Related substances (w/w %)” value ([4]; 2 months) was “not detected” and the “Chiral purity (%)” value ([4]; 2 months) was 99.8%. The “Content (HPLC, w/w %)” value ([4]; 2 months) was 99.6 w/w %, the “Moisture (KF, w/w %)” value ([4]; 3 months) was 5.7 w/w % and the “Related substances (w/w %)” value ([4]; 3 months) was “not detected”. For the same compound, the “Chiral purity (%)” value ([4]; 3 months) was 99.8%, the “Content (HPLC, w/w %)” value ([4]; 3 months) was 100.4 w/w % and the “Moisture (KF, w/w %)” value ([4]; 6 months) was 5.8 w/w %. For the same compound, the “Related substances (w/w %)” value ([4]; 6 months) was “not detected”, the “Chiral purity (%)” value ([4]; 6 months) was 99.8% and the “Content (HPLC, w/w %)” value ([4]; 6 months) was 100.1 w/w %. For the same compound, the “Moisture (KF, w/w %)” value ([4]; Initial) was 5.9 w/w %, the “Related substances (w/w %)” value ([4]; Initial) was “not detected” and the “Chiral purity (%)” value ([4]; Initial) was 99.8%. The “Content (HPLC, w/w %)” value ([4]; Initial) was 100.3 w/w %, the accelerated stability ([4]; 40° C./75% RH, double-layer polyethylene bag) was “no significant change in the detection results” and the “crystal form stability (XRPD pattern)” value ([5]; 60° C.) was “stable”. The “crystal form stability (XRPD pattern)” value ([5]; 60° C./75% RH) was “stable”, the “impurity produced due to degradation” value ([5]; solid left at 60° C. for 15 days) was “no significant impurity to produce due to degradation” and the “impurity produced due to degradation” value ([5]; solid left at 60° C./75% RH for 15 days) was “no significant impurity to produce due to degradation”. The bioavailability [6] was over 70%.

— patent US20260062388A1, “POLYMORPHIC FORM OF NEPICASTAT ACID ADDITION SALT, PREPARATION METHOD THEREFOR AND USE THEREOF” (Jiangsu Yahong Meditech Co., Ltd., priority 2022, published 2026)
